Data: ChEMBL document CHEMBL3992518, “Peptide Macrocycle Inhibitor of Coagulation Factor XII with Subnanomolar Affinity and High Target Selectivity” (J Med Chem, 2017)
pKi: −log10 of the molar value. Calls of active or inactive are those of the source. The rule behind the calls is not given here. *1 amine or outer side, *2 acyl side, *3 side chain or, on linkers, in order; H or OH if unused. Where a SMILES comes first, the peptide text is derived from it. Bridges are numbered along the chain shown (N, C = ends). TATA = O=C(CC[*:1])N1CN(C(=O)CC[*:2])CN(C(=O)CC[*:3])C1

Experiments:
Plasma [1] = assay: Anticoagulant activity in human plasma assessed as change in prothrombin time up to 40 uM by coagulation analyser; format: functional, cell-free
[2] = target: Urokinase-type plasminogen activator (Homo sapiens) (UniProt P00749); assay: Inhibition of human uPa at 40 uM using fluorogenic substrate Z-Gly-Gly-Arg-AMC
Homo sapiens [3] = organism: Homo sapiens; assay: Selectivity for human beta-factor 12a over human tPa
[4] = target: Tissue-type plasminogen activator (Homo sapiens) (UniProt P00750); assay: Inhibition of human tPa at 40 uM using fluorogenic substrate Z-Gly-Gly-Arg-AMC
Sequence of Tissue-type plasminogen activator (Homo sapiens) (P00750 36-562 limits assumed): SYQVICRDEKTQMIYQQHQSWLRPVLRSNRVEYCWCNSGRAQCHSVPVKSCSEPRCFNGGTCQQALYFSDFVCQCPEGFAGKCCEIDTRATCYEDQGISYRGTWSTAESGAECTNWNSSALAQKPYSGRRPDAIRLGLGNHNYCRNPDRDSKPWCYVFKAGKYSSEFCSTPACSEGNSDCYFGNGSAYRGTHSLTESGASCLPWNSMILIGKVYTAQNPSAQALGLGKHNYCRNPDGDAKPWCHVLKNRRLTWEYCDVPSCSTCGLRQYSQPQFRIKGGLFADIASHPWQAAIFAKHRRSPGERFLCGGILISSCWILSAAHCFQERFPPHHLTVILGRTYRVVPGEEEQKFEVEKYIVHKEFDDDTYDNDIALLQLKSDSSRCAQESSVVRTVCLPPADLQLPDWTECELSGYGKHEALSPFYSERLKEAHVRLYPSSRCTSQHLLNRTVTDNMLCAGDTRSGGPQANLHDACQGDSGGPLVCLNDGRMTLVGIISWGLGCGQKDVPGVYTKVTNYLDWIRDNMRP

Homo sapiens [5] = organism: Homo sapiens; assay: Selectivity for human beta-factor 12a over human factor 11a
Homo sapiens [6] = organism: Homo sapiens; assay: Selectivity for human beta factor 12a over human plasma kallikrein
Homo sapiens [7] = organism: Homo sapiens; assay: Selectivity for human beta-factor 12a over human plasmin
Plasma [8] = assay: Anticoagulant activity in human plasma assessed as concentration required to double activated partial thromboplastin time by coagulation analyser; format: functional
[9] = target: Plasminogen (Homo sapiens) (UniProt P00747); assay: Inhibition of human plasmin at 40 uM using fluorogenic substrate H-D-Val-Leu-Lys-AMC
Sequence of Plasminogen (Homo sapiens) (P00747 97-580 limits assumed): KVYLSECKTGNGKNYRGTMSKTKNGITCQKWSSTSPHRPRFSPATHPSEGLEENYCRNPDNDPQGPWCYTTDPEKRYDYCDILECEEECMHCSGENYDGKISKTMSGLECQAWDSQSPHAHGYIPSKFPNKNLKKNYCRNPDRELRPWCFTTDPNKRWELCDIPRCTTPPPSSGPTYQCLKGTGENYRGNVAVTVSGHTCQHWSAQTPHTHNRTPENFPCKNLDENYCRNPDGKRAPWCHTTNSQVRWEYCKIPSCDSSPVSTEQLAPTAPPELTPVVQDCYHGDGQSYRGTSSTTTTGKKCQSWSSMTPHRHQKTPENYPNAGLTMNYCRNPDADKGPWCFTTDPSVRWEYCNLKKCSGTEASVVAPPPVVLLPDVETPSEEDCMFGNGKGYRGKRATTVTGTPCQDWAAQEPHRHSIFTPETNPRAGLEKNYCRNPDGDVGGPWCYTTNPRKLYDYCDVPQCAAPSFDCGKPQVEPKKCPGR
Sequence of Plasminogen (Homo sapiens) (P00747 581-810 limits assumed): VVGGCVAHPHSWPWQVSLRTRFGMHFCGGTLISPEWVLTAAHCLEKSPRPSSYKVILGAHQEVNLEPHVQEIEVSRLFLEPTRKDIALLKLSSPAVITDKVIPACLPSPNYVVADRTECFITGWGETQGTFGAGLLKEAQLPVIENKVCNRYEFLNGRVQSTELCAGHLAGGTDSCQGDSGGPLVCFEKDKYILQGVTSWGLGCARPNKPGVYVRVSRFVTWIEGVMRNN

[10] = target: Coagulation factor X (Homo sapiens) (UniProt P00742); assay: Inhibition of human factor 10a at 40 uM using fluorogenic substrate D-Phe-Pro-Arg-ANSNH-C4H9
Sequence of Coagulation factor X (Homo sapiens) (P00742 41-179 limits assumed): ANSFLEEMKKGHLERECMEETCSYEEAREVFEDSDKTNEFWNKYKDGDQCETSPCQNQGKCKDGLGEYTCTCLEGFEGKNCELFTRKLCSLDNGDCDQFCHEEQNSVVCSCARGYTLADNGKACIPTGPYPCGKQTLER
Sequence of Coagulation factor X (Homo sapiens) (P00742 235-488 limits assumed): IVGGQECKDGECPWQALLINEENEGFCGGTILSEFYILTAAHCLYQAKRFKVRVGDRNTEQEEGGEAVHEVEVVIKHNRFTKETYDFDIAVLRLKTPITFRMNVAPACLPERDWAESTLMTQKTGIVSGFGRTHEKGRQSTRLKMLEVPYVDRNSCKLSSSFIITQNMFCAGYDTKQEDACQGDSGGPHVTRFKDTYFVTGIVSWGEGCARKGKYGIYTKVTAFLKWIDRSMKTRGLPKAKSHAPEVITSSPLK

[11] = Half life in human citrated plasma at 10 uM by mass spectrophotometric analysis; format: ADME, cell-free
[12] = Inhibition of human trypsin using fluorogenic substrate Z-Gly-Gly-Arg-AMC
Coagulation factor XII = target: T1, Coagulation factor XII (Homo sapiens, UniProt P00748); assay: Inhibition of human beta factor 12a using fluorogenic substrate Boc-Gln-Gly-Arg-AMC preincubated for 10 mins followed by addition of substrate measured every min for 30 mins
T1 sequence (P00748 whole entry): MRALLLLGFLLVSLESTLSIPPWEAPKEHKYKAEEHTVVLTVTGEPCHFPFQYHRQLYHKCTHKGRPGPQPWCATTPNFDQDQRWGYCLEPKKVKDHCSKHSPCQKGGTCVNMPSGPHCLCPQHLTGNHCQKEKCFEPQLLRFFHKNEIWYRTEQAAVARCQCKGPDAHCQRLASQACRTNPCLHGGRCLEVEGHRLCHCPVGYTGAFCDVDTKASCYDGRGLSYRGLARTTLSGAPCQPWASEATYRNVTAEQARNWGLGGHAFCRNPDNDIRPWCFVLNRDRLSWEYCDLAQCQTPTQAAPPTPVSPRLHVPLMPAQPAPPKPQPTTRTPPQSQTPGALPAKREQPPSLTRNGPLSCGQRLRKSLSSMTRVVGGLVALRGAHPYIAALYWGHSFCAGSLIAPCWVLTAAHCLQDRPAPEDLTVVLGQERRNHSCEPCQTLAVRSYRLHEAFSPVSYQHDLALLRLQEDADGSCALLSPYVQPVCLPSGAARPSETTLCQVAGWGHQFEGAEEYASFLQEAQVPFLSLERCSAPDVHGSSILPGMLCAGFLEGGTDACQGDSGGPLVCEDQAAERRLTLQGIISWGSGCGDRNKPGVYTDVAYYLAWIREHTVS

[13] = target: T2, Coagulation factor VII (Homo sapiens) (UniProt P08709); assay: Inhibition of human factor 7a at 40 uM using fluorogenic substrate D-Phe-Pro-Arg-ANSNH-C4H9
T2 sequence (whole entry): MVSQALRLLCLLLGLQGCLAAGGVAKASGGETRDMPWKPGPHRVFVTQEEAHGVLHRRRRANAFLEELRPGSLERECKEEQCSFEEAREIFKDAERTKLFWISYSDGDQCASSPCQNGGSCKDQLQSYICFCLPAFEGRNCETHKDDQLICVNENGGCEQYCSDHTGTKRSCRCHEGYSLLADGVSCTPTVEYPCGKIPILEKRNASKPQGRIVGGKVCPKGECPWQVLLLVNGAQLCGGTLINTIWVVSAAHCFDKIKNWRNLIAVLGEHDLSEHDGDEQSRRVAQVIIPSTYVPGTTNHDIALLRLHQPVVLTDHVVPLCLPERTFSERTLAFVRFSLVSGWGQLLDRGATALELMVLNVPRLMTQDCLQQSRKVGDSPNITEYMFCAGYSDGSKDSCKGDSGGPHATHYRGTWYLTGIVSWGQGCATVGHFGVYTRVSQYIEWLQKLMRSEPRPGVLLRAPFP

Plasma kallikrein [14] = target: T3, Plasma kallikrein (Homo sapiens, UniProt P03952); assay: Inhibition of human plasma kallikrein using fluorogenic substrate Z-Phe-Arg-AMC
T3 sequence (P03952 20-390 limits assumed): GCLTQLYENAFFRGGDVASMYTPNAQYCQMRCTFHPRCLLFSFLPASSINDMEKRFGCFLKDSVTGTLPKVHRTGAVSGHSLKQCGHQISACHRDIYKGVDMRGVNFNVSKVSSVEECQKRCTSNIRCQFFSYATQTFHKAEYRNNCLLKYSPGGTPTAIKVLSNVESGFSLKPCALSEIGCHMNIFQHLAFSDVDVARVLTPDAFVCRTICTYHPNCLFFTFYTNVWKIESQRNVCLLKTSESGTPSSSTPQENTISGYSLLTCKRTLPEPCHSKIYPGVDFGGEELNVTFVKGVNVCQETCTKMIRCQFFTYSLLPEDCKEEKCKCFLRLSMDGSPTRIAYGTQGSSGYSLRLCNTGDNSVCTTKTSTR
T3 sequence (P03952 391-638 limits assumed): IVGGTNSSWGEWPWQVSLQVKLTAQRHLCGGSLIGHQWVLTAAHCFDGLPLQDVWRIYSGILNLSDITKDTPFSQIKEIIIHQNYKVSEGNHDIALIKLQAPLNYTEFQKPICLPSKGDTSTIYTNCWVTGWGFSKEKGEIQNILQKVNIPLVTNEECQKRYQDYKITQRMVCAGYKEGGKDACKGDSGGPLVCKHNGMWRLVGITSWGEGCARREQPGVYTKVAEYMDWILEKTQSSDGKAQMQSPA

Homo sapiens [15] = organism: Homo sapiens; assay: Selectivity for human beta-factor 12a over human factor 7a
Homo sapiens [16] = organism: Homo sapiens; assay: Selectivity for human beta-factor 12a over human factor 10a
Plasma kallikrein [17] = target: T3, Plasma kallikrein; assay: Inhibition of human plasma kallikrein at 40 uM using fluorogenic substrate Z-Phe-Arg-AMC
Homo sapiens [18] = organism: Homo sapiens; assay: Inhibition of human trypsin at 40 uM using fluorogenic substrate Z-Gly-Gly-Arg-AMC
[19] = target: Prothrombin (Homo sapiens) (UniProt P00734); assay: Inhibition of human thrombin at 40 uM using fluorogenic substrate Z-Gly-Gly-Arg-AMC
Homo sapiens [20] = organism: Homo sapiens; assay: Selectivity for human beta-factor 12a over human uPa
Homo sapiens [21] = organism: Homo sapiens; assay: Selectivity for human beta-factor 12a over human thrombin
[22] = target: Coagulation factor XI (Homo sapiens) (UniProt P03951); assay: Inhibition of human factor 11a at 40 uM using fluorogenic substrate Boc-Phe-Ser-Arg-AMC
Sequence of Coagulation factor XI (Homo sapiens) (P03951 19-387 limits assumed): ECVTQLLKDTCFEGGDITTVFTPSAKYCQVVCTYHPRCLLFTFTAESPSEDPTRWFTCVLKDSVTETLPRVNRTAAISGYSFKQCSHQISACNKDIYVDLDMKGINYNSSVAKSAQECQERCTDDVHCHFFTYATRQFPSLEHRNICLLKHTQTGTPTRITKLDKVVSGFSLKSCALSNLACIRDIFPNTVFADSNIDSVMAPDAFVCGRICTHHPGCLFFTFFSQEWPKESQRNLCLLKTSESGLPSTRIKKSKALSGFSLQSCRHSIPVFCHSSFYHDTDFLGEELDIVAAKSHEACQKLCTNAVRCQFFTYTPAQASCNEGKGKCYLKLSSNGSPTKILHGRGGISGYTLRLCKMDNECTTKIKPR
Sequence of Coagulation factor XI (Homo sapiens) (P03951 388-625 limits assumed): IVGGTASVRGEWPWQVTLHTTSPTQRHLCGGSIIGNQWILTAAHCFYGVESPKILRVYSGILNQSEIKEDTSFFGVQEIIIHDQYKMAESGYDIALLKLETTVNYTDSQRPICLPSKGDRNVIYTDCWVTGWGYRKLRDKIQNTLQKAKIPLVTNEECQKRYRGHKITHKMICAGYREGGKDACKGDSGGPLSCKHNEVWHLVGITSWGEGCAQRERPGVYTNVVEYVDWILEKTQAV

Homo sapiens [23] = organism: Homo sapiens; assay: Selectivity for human beta-factor 12a over human trypsin

Compound | half-life at 10 µM [11] [h] | pKi (Coagulation factor XII) | inhibition (Plasma kallikrein [17]) | inhibition (Homo sapiens [18]) | Activity (Plasma [1]) | 2aPTT (Plasma [8]) [µM] | Activity (Plasma [8]) | also measured
CC(C)C[C@@H]1NC(=O)[C@H](CCC(N)=O)NC(=O)[C@H](CCCNC(=N)N)NC(=O)[C@@H]2CSCCC(=O)N3CN(CN(C3)C(=O)CCSC[C@H](NC(=O)[C@@H](N)CCNC(=N)N)C(=O)N[C@@H](Cc3ccc(F)cc3)C(=O)N[C@@H](CCCNC(=N)N)C(=O)N[C@@H](CC(C)C)C(=O)N3CCC[C@H]3C(=O)N2)C(=O)CCSC[C@@H](C(=O)N[C@@H](CCCNC(=N)N)C(=O)O)NC(=O)[C@H](CCCNC(=N)N)NC1=O | 16 | 8.79 | > 50% | > 50% | inactive | 2 | Dose-dependent effect | inhibition [2]: < 20%; Selectivity ratio (Homo sapiens [3]): 27000; inhibition [4]: < 20%; Selectivity ratio (Homo sapiens [5]): 27000; Selectivity ratio (Homo sapiens [6]): 27000; Selectivity ratio (Homo sapiens [7]): 27000; inhibition [9]: < 20%; inhibition [10]: < 20%; pKi [12]: 5.89; inhibition [13]: < 20%; pKi (Plasma kallikrein [14]): 4.35; Selectivity ratio (Homo sapiens [15]): 27000; Selectivity ratio (Homo sapiens [16]): 27000; inhibition [19]: < 20%; Selectivity ratio (Homo sapiens [20]): 27000; Selectivity ratio (Homo sapiens [21]): 27000; inhibition [22]: < 20%; Selectivity ratio (Homo sapiens [23]): 800
CC(C)C[C@@H]1NC(=O)[C@H](CCC(N)=O)NC(=O)[C@H](CCCNC(=N)N)NC(=O)[C@@H]2CSCCC(=O)N3CN(CN(C3)C(=O)CCSC[C@@H](C(=O)N[C@@H](CCCNC(=N)N)C(=O)O)NC(=O)[C@H](CCCNC(=N)N)NC1=O)C(=O)CCSC[C@H](NC(=O)[C@H](N)Cc1ccc(NC(=N)N)cc1)C(=O)N[C@@H](Cc1ccccc1)C(=O)N[C@@H](CCCNC(=N)N)C(=O)N[C@@H](CC(C)C)C(=O)N1CCC[C@H]1C(=O)N2 | 13 | 7.82 | – | – | – | – | – | –
CC(C)C[C@@H]1NC(=O)[C@H](CCC(N)=O)NC(=O)[C@H](CCCNC(=N)N)NC(=O)[C@@H]2CSCCC(=O)N3CN(CN(C3)C(=O)CCSC[C@@H](C(=O)N[C@@H](CCCNC(=N)N)C(=O)O)NC(=O)[C@H](CCCNC(=N)N)NC1=O)C(=O)CCSC[C@H](NC(=O)[C@H](N)CCNC(=N)N)C(=O)N[C@@H](Cc1ccccc1)C(=O)N[C@@H](CCCNC(=N)N)C(=O)N[C@@H](CC(C)C)C(=O)N1CCC[C@H]1C(=O)N2 | 22 | 7.85 | – | – | – | – | – | –
CC(C)C[C@@H]1NC(=O)[C@H](CCC(N)=O)NC(=O)[C@H](CCCNC(=N)N)NC(=O)[C@@H]2CSCCC(=O)N3CN(CN(C3)C(=O)CCSC[C@H](NC(=O)[C@@H](N)CCCNC(=N)N)C(=O)N[C@@H](Cc3ccc(F)cc3)C(=O)N[C@@H](CCCNC(=N)N)C(=O)N[C@@H](CC(C)C)C(=O)N3CCC[C@H]3C(=O)N2)C(=O)CCSC[C@@H](C(=O)N[C@@H](CCCNC(=N)N)C(=O)O)NC(=O)[C@H](CCCNC(=N)N)NC1=O | – | 9.08 | Active | Active | inactive | 1.6 | Dose-dependent effect | –
CC(C)C[C@@H]1NC(=O)[C@H](CCC(N)=O)NC(=O)[C@H](CCCNC(=N)N)NC(=O)[C@@H]2CSCCC(=O)N3CN(CN(C3)C(=O)CCSC[C@@H](C(=O)N[C@@H](CCCNC(=N)N)C(=O)O)NC(=O)[C@H](CCCNC(=N)N)NC1=O)C(=O)CCSC[C@H](NC(=O)[C@H](C)N)C(=O)N[C@@H](Cc1ccccc1)C(=O)N[C@@H](CCCNC(=N)N)C(=O)N[C@@H](CC(C)C)C(=O)N1CCC[C@H]1C(=O)N2 (H-ACFRLPCRQLRCR-OH; linker 2-7-12 via TATA) | – | 7.23 | – | – | – | – | – | –

More lines, main results first:

half-life at 10 µM [11] [h] | pKi (Coagulation factor XII) | inhibition (Plasma kallikrein [17]) | inhibition (Homo sapiens [18]) | Compound | Activity (Plasma [1]) | 2aPTT (Plasma [8]) [µM] | Activity (Plasma [8]) | also measured
4 | – | Active | Active | CC(C)C[C@@H]1NC(=O)[C@H](CCC(N)=O)NC(=O)[C@H](CCCNC(=N)N)NC(=O)[C@@H]2CSCCC(=O)N3CN(CN(C3)C(=O)CCSC[C@H](NC(=O)[C@@H](N)CCCNC(=N)N)C(=O)N[C@@H](Cc3ccccc3)C(=O)N[C@@H](CCCNC(=N)N)C(=O)N[C@@H](CC(C)C)C(=O)N3CCC[C@H]3C(=O)N2)C(=O)CCSC[C@@H](C(=O)N[C@@H](CCCNC(=N)N)C(=O)O)NC(=O)[C@H](CCCNC(=N)N)NC1=O | inactive | 2.9 | Dose-dependent effect | –
2 | 8.19 | – | – | CC(C)C[C@@H]1NC(=O)[C@H](CCC(N)=O)NC(=O)[C@H](CCCNC(=N)N)NC(=O)[C@@H]2CSCCC(=O)N3CN(CN(C3)C(=O)CCSC[C@@H](C(=O)N[C@@H](CCCNC(=N)N)C(=O)O)NC(=O)[C@H](CCCNC(=N)N)NC1=O)C(=O)CCSC[C@H](NC(=O)[C@H](N)CCCCCN)C(=O)N[C@@H](Cc1ccccc1)C(=O)N[C@@H](CCCNC(=N)N)C(=O)N[C@@H](CC(C)C)C(=O)N1CCC[C@H]1C(=O)N2 | – | – | – | –
5 | 8.06 | – | – | CC(C)C[C@@H]1NC(=O)[C@H](CCC(N)=O)NC(=O)[C@H](CCCNC(=N)N)NC(=O)[C@@H]2CSCCC(=O)N3CN(CN(C3)C(=O)CCSC[C@@H](C(=O)N[C@@H](CCCNC(=N)N)C(=O)O)NC(=O)[C@H](CCCNC(=N)N)NC1=O)C(=O)CCSC[C@H](NC(=O)[C@H](N)CCCCNC(=N)N)C(=O)N[C@@H](Cc1ccccc1)C(=O)N[C@@H](CCCNC(=N)N)C(=O)N[C@@H](CC(C)C)C(=O)N1CCC[C@H]1C(=O)N2 | – | – | – | –
